Data as given in patent US12435044B2, “Pyridazinone herbicides and pyridazinone intermediates used to prepare a herbicide” (FMC Corporation, priority 2018, dated 2025).

Tests used:
Type in all cases: in vivo
rice (Oryza sativa) = test: Test B flooded paddy test; settings: Flood, 250 g ai/ha
Description: (§1) Plant species in the flooded paddy test selected from rice (Oryza sativa), sedge, umbrella (small-flower umbrella sedge, Cyperus difformis), duck salad (Heteranthera limosa) and barnyardgrass (Echinochloa crus-galli) were grown to the 2-leaf stage for testing. At time of treatment, test pots were flooded to 3 cm above the soil surface, treated by application of test compounds directly to the paddy water, and then maintained at that water depth for the duration of the test. Treated plants and controls were maintained in a greenhouse for 13 to 15 d, after which time all species were compared to controls and visually evaluated. Plant response ratings, summarized in Table B, are based on a scale of 0 to 100 where 0 is no effect and 100 is complete control. A dash (-) response means no test result.

[1] = test system: duck salad (Heteranthera limosa); test: Test B flooded paddy test; settings: Flood, 250 g ai/ha, Ducksalad
Description: as §1

[2] = test system: barnyardgrass (Echinochloa crus-galli); test: Test B flooded paddy test; settings: Flood, 250 g ai/ha
Description: as §1

[3] = test system: sedge, umbrella (small-flower umbrella sedge, Cyperus difformis); test: Test B flooded paddy test; settings: Flood, 250 g ai/ha
Description: as §1

[4] = test system: field poppy (Papaver rhoeas); test: Test C postemergence greenhouse test; settings: scale 0 to 100
Description: (§2) Seeds of plant species selected from blackgrass (Alopecurus myosuroides), ryegrass, Italian (Lolium multiflorum), wheat, winter (winter wheat, Triticum aestivum), galium (catchweed bedstraw, Galium aparine), corn (Zea mays), crabgrass, large (Digitaria sanguinalis), foxtail, giant (Setaria faberii), johnsongrass (Sorghum halepense), lambsquarters (Chenopodium album), morningglory (Ipomoea coccinea), nutsedge, yellow (Cyperus esculentus), pigweed (Amaranthus retroflexus), ragweed (common ragweed, Ambrosia elatior), soybean (Glycine max), barnyardgrass (Echinochloa crus-galli), oilseed rape (Brassica napus), waterhemp (common waterhemp, Amaranthus rudis), pigweed, palmer (Amaranthus palmeri), kochia (Kochia scoparia), oat, wild (Avena fatua), surinam grass (Brachiaria decumbens), windgrass (Apera spica-venti), poinsettia, wild (Euphorbia heterophylla) and velvetleaf (Abutilon theophrasti) were planted into a silt loam soil and treated preemergence with test chemicals formulated in a non-phytotoxic solvent mixture which included a surfactant.
(§3) At the same time, plants selected from these crop and weed species and also chickweed (common chickweed, Stellaria media), buckwheat, wild (Polygonum convolvulus), mustard, wild (Sinapis arvensis), field poppy (Papaver rhoeas), field violet (Viola arvensis), nightshade (eastern black nightshade, Solanum ptycanthum), speedwell (bird's-eye speedwell, Veronica persica), horseweed (Conyza canadensis), cutleaf geranium (Geranium dissectum), and Canada thistle (Cirsium arvense) were planted in pots containing Redi-Earth® planting medium (Scotts Company, 14111 Scottslawn Road, Marysville, Ohio 43041) comprising spaghnum peat moss, vermiculite, wetting agent and starter nutrients and treated with postemergence applications of test chemicals formulated in the same manner. Plants ranged in height from 2 to 18 cm (1- to 4-leaf stage) for postemergence treatments. Treated plants and controls were maintained in a greenhouse for 13 to 21 d, after which time all species were compared to controls and visually evaluated. Plant response ratings, summarized in Table C-1 (postemergence) and C-2 (preemergence), are based on a scale of 0 to 100 where 0 is no effect and 100 is complete control. A dash (-) response means no test result.

[5] = test system: chickweed (common chickweed, Stellaria media); test: Test C postemergence greenhouse test; settings: scale 0 to 100
Description: as §2, §3

[6] = test system: waterhemp (common waterhemp, Amaranthus rudis); test: Test C pre-/postemergence greenhouse test; settings: scale 0 to 100
Description: as §2, §3

soybean (Glycine max) = test: Test C pre-/postemergence greenhouse test; settings: scale 0 to 100
Description: as §2, §3

[7] = test system: oilseed rape (Brassica napus); test: Test C pre-/postemergence greenhouse test; settings: scale 0 to 100
Description: as §2, §3

[8] = test system: wheat, winter (winter wheat, Triticum aestivum); test: Test C pre-/postemergence greenhouse test; settings: scale 0 to 100
Description: as §2, §3

SMILES: Cc1ccc2ccc(Cl)cc2c1-c1c(O)c(Cl)nn(C)c1=O [Cpd. No. 22]
- Plant response rating (0 to 100 scale) (rice (Oryza sativa)): 60
- Plant response rating (0 to 100 scale) [1]: 90
- Plant response rating (0 to 100 scale) [2]: 40
- Plant response rating (0 to 100 scale) [3]: 85
- Plant response rating, Field Poppy ([4]; 16 g ai/ha): 75
- Plant response rating, Field Poppy ([4]; 31 g ai/ha): 75
- Plant response rating, Field Poppy ([4]; 62 g ai/ha): 75
- Plant response rating, Field Poppy ([4]; 125 g ai/ha): 100
- Plant response rating, Chickweed ([5]; 16 g ai/ha): 100
- Plant response rating, Chickweed ([5]; 31 g ai/ha): 98
- Plant response rating, Chickweed ([5]; 62 g ai/ha): 100
- Plant response rating, Chickweed ([5]; 125 g ai/ha): 100
- Plant response rating, Waterhemp ([6]; Postemergence, 16 g ai/ha): 75
- Plant response rating, Waterhemp ([6]; Postemergence, 31 g ai/ha): 85
- Plant response rating, Waterhemp ([6]; Postemergence, 62 g ai/ha): 85
- Plant response rating, Waterhemp ([6]; Postemergence, 125 g ai/ha): 90
- Plant response rating, Waterhemp ([6]; Preemergence, 31 g ai/ha): 85
- Plant response rating, Waterhemp ([6]; Preemergence, 61 g ai/ha): 70
- Plant response rating, Waterhemp ([6]; Preemergence, 62 g ai/ha): 95
- Plant response rating, Waterhemp ([6]; Preemergence, 125 g ai/ha): 95
- Plant response rating, Soybean (soybean (Glycine max); Postemergence, 16 g ai/ha): 5
- Plant response rating, Soybean (soybean (Glycine max); Postemergence, 31 g ai/ha): 10
- Plant response rating, Soybean (soybean (Glycine max); Postemergence, 62 g ai/ha): 20
- Plant response rating, Soybean (soybean (Glycine max); Postemergence, 125 g ai/ha): 25
- Plant response rating, Soybean (soybean (Glycine max); Preemergence, 31 g ai/ha): 5
- Plant response rating, Soybean (soybean (Glycine max); Preemergence, 61 g ai/ha): 0
- Plant response rating, Soybean (soybean (Glycine max); Preemergence, 62 g ai/ha): 0
- Plant response rating, Soybean (soybean (Glycine max); Preemergence, 125 g ai/ha): 30
- Plant response rating, Oilseed Rape ([7]; Postemergence, 16 g ai/ha): 85
- Plant response rating, Oilseed Rape ([7]; Postemergence, 31 g ai/ha): 90
- Plant response rating, Oilseed Rape ([7]; Postemergence, 62 g ai/ha): 95
- Plant response rating, Oilseed Rape ([7]; Postemergence, 125 g ai/ha): 100
- Plant response rating, Oilseed Rape ([7]; Preemergence, 31 g ai/ha): 0
- Plant response rating, Oilseed Rape ([7]; Preemergence, 61 g ai/ha): 0
- Plant response rating, Oilseed Rape ([7]; Preemergence, 62 g ai/ha): 100
- Plant response rating, Oilseed Rape ([7]; Preemergence, 125 g ai/ha): 100
- Plant response rating, Wheat ([8]; Postemergence, 16 g ai/ha): 85
- Plant response rating, Wheat ([8]; Postemergence, 31 g ai/ha): 90
- Plant response rating, Wheat ([8]; Postemergence, 62 g ai/ha): 90
- Plant response rating, Wheat ([8]; Postemergence, 125 g ai/ha): 95
- Plant response rating, Wheat ([8]; Preemergence, 31 g ai/ha): 85
- Plant response rating, Wheat ([8]; Preemergence, 61 g ai/ha): 60
- Plant response rating, Wheat ([8]; Preemergence, 62 g ai/ha): 95
- Plant response rating, Wheat ([8]; Preemergence, 125 g ai/ha): 100
